Source: the NIST ThermoML archive (doi:10.1021/je200793z)

Experiments:
[1] = xn = mol fraction of the nth substance listed

CCC(C)(C)O [2-methylbutan-2-ol]
Settings	surface tension liquid-gas [mN/m]
293.15 K	24.04
298.15 K	23.61
303.15 K	23.14
308.15 K	22.69
313.15 K	22.3
318.15 K	21.86
323.15 K	21.44

CCO [ethanol]
Settings	surface tension liquid-gas [mN/m]
293.15 K	22.31
298.15 K	21.82
303.15 K	21.41
308.15 K	21.04
313.15 K	20.62
318.15 K	20.22
323.15 K	19.82

CC(C)CCO [3-methylbutan-1-ol] + CCO
surface tension liquid-gas [mN/m], [1]
Settings	293.15 K	298.15 K	303.15 K	308.15 K	313.15 K	318.15 K	323.15 K
x1 = 0.0268	22.56	22.09	21.7	21.35	20.95	20.56	20.17
x1 = 0.0549	22.78	22.32	21.94	21.59	21.19	20.81	20.44
x1 = 0.0845	22.98	22.54	22.17	21.81	21.41	21.04	20.67
x1 = 0.1156	23.17	22.73	22.36	22.01	21.62	21.24	20.87
x1 = 0.1484	23.33	22.9	22.53	22.17	21.78	21.41	21.04
x1 = 0.183	23.49	23.05	22.68	22.32	21.92	21.55	21.17
x1 = 0.2584	23.75	23.32	22.95	22.58	22.18	21.8	21.42
x1 = 0.3433	23.96	23.54	23.17	22.79	22.39	22.01	21.63
x1 = 0.4395	24.13	23.72	23.36	22.97	22.57	22.19	21.81
x1 = 0.5495	24.25	23.85	23.49	23.1	22.7	22.33	21.95
x1 = 0.6765	24.34	23.96	23.61	23.21	22.82	22.44	22.06
x1 = 0.8247	24.41	24.05	23.71	23.29	22.89	22.51	22.12
x1 = 1	24.5	24.15	23.8	23.36	22.96	22.57	22.17

CCC(C)(C)O [2-methylbutan-2-ol] + CCO
surface tension liquid-gas [mN/m], [1]
Settings	293.15 K	298.15 K	303.15 K	308.15 K	313.15 K	318.15 K	323.15 K
x1 = 0.0268	22.5	22.05	21.67	21.34	20.93	20.58	20.22
x1 = 0.0549	22.66	22.23	21.85	21.51	21.16	20.82	20.48
x1 = 0.0845	22.78	22.36	21.98	21.64	21.3	20.97	20.62
x1 = 0.1156	22.88	22.46	22.08	21.75	21.41	21.07	20.72
x1 = 0.1484	22.97	22.54	22.16	21.83	21.48	21.14	20.79
x1 = 0.183	23.04	22.61	22.23	21.89	–	21.2	20.84
x1 = 0.2584	23.16	22.73	22.34	21.99	–	21.28	20.92
x1 = 0.3433	23.28	22.84	22.45	22.09	21.73	21.36	21
x1 = 0.4395	23.41	22.97	22.56	22.19	21.82	21.45	21.08
x1 = 0.5495	23.55	23.1	22.68	22.29	21.92	21.53	21.16
x1 = 0.6765	23.7	23.24	22.81	22.4	22.02	21.62	21.23
x1 = 0.8247	23.88	23.41	22.96	22.53	22.15	21.73	21.34
x1 = 1	24.04	23.61	23.14	22.69	22.3	21.86	21.44

CCO [ethanol] + CCC(C)CO
[1], x2 = 0
Settings	surface tension liquid-gas [mN/m]
293.15 K	22.31
298.15 K	21.82
303.15 K	21.41
308.15 K	21.04
313.15 K	20.62
318.15 K	20.22
323.15 K	19.82

CCC(C)CO (stereo not given) [2-methyl-1-butanol]
Settings	surface tension liquid-gas [mN/m]
293.15 K	24.09
298.15 K	23.61
303.15 K	23.14
308.15 K	22.69
313.15 K	22.3
318.15 K	21.86
323.15 K	21.44

CC(C)CCO [3-methylbutan-1-ol]
Settings	surface tension liquid-gas [mN/m]
293.15 K	24.5
298.15 K	24.15
303.15 K	23.8
308.15 K	23.36
313.15 K	22.96
318.15 K	22.57
323.15 K	22.17

CCO [ethanol] + CCC(C)(C)O
[1], x2 = 0
Settings	surface tension liquid-gas [mN/m]
293.15 K	22.31
298.15 K	21.82
303.15 K	21.41
308.15 K	21.04
313.15 K	20.62
318.15 K	20.22
323.15 K	19.82

CCO [ethanol] + CC(C)CCO
[1], x2 = 0
Settings	surface tension liquid-gas [mN/m]
293.15 K	22.31
298.15 K	21.82
303.15 K	21.41
308.15 K	21.04
313.15 K	20.62
318.15 K	20.22
323.15 K	19.82

CCC(C)CO (stereo not given) [2-methyl-1-butanol] + CCO
surface tension liquid-gas [mN/m], [1]
Settings	293.15 K	298.15 K	303.15 K	308.15 K	313.15 K	318.15 K	323.15 K
x1 = 0.0268	22.48	22.1	21.71	21.39	21.04	20.68	20.36
x1 = 0.0549	22.65	22.25	21.9	21.56	21.22	20.9	20.55
x1 = 0.0845	22.76	22.37	21.99	21.67	21.33	21	20.64
x1 = 0.1156	22.86	22.47	22.1	21.75	21.44	21.08	20.73
x1 = 0.1484	22.96	22.54	22.17	21.82	21.49	21.12	20.81
x1 = 0.183	23.01	22.62	22.23	21.89	21.54	21.2	20.86
x1 = 0.2584	23.15	22.72	22.35	22	21.61	21.24	20.91
x1 = 0.3433	23.28	22.86	22.46	22.11	21.76	21.37	20.98
x1 = 0.4395	23.43	22.98	22.58	22.22	21.83	21.44	21.05
x1 = 0.5495	23.56	23.09	22.69	22.3	21.94	21.54	21.15
x1 = 0.6765	23.72	23.25	22.82	22.41	22.02	21.61	21.27
x1 = 0.8247	23.89	23.38	22.96	22.54	22.13	21.7	21.33
x1 = 1	24.09	23.61	23.14	22.69	22.3	21.86	21.44
